Among the data in US10961228B2, “JAK1 selective inhibitors” (AstraZeneca AB, priority 2017, dated 2021) are IC50 values, retold here.

Test [1] concerns the target recombinant JAK3 (amino acids 781-1124) (Homo sapiens (Human), UniProt P52333). Briefly: Enzyme inhibition studies, JAK3 (5 mM ATP, Caliper). In kind it is biochemical. Put shortly: (§1)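 N-terminal GST-fused kinase domains from insect cells, run at 5 mM ATP with inhibitor at 30, 3, 0.3, 0.03, 0.003 and 0 μM final.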
Test [2] has as its system IL-13 induced STAT6 promotor luciferase reporter in U937 monocytes (U937-STAT6-Luc). Briefly: Cellular interleukin (IL-13) induced JAK-STAT6-luciferase assay (pSTAT6). It is filed as cell-based. The settings on record: Homo sapiens, U-937; IL-13 induced STAT6-luciferase, U937-STAT6-Luc cells. Summed up: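 U937 STAT6-luciferase reporter cells in HEPES/HBSS/0.1% BSA buffer, pretreated with serially diluted compounds (10 mM to 0.5 nM DMSO stocks) and stimulated with IL-13. Incubation 4½ h at 37 °C then 30 min at room temperature; SteadyGlo luminescence read.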

In test [3] the target is recombinant JAK1 (amino acids 866-1154) (Homo sapiens (Human), UniProt P23458). As to the kind of experiment: Enzyme inhibition studies, JAK1 (5 mM ATP, Caliper). It is filed as biochemical. Summed up:
as §1

The target in test [4] is recombinant JAK2 (amino acids 831-1132) (Homo sapiens (Human), UniProt O60674). As to the kind of experiment: Enzyme inhibition studies, JAK2 (5 mM ATP, Caliper). It is filed as biochemical. Summed up: as §1
Chain of recombinant JAK2 (amino acids 831-1132) (O60674 831-1132): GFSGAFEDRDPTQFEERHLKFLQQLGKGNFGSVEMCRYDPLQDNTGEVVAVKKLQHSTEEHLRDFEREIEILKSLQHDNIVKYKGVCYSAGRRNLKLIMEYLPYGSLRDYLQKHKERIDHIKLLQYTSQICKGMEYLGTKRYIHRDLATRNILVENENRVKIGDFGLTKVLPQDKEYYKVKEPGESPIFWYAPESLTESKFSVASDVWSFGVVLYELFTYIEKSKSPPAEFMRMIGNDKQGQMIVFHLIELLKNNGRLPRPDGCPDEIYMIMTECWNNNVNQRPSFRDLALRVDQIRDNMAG

The structures appear in SMILES notation.

Chain of recombinant JAK3 (amino acids 781-1124) (P52333 781-1124): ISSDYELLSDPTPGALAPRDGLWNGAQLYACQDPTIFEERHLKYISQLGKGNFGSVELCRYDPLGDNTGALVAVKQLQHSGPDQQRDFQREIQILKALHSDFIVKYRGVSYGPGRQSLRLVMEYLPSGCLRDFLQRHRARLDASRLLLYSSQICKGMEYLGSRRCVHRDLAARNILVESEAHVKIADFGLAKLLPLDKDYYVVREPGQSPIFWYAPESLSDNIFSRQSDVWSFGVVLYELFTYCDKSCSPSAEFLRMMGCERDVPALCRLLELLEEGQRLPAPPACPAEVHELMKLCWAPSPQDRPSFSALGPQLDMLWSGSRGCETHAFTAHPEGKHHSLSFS
Chain of recombinant JAK1 (amino acids 866-1154) (P23458 866-1154): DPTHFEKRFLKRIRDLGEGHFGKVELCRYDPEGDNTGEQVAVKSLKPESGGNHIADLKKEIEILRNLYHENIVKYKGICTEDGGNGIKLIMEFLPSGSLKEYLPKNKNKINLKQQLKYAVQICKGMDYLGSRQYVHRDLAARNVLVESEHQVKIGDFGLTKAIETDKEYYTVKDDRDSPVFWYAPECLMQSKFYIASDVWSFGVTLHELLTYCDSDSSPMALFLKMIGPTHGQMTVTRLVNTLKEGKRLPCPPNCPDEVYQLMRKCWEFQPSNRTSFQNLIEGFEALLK

By IC50 is commonly meant the point on the concentration scale where inhibition reaches its midpoint. Consider `COC[C@@H](C(=O)Nc1cccc2c(-c3nc(Nc4cccc(S(C)(=O)=O)c4F)ncc3F)c[nH]c12)N1CCCN(C)CC1` [Example 44, (S)-N-(3-(5-fluoro-2-((2-fluoro-3-(methylsulfonyl)phenyl)amino)pyrimidin-4-yl)-1H-indol-7-yl)-3-methoxy-2-(4-methyl-1,4-diazepan-1-yl)propanamide], for which the IC50 is > 30000 nM in test [1], 3050 nM in test [2], 953 nM in test [3] and > 30000 nM in test [4].

As to `COC[C@H](C(=O)Nc1cccc2c(-c3nc(Nc4cccc(S(C)(=O)=O)c4F)ncc3F)c[nH]c12)N1CCCN(C)CC1` [Example 45, (R)-N-(3-(5-fluoro-2-((2-fluoro-3-(methylsulfonyl)phenyl)amino)pyrimidin-4-yl)-1H-indol-7-yl)-3-methoxy-2-(4-methyl-1,4-diazepan-1-yl)propanamide], the IC50 in test [1] is > 30000 nM; in test [2] it was 36 nM; in test [3] it was < 3 nM; in test [4], 718 nM.

As for `C[C@H](C(=O)Nc1cccc2c(-c3nc(Nc4cccc(S(C)(=O)=O)c4F)ncc3F)c[nH]c12)N1CCCN(C)CC1` [Example 46, (R)-N-(3-(5-fluoro-2-((2-fluoro-3-(methylsulfonyl)phenyl)amino)pyrimidin-4-yl)-1H-indol-7-yl)-2-(4-methyl-1,4-diazepan-1-yl)propanamide], the IC50 in test [1] was > 30000 nM; in test [2], 83 nM; in test [3] it was 19.8 nM; in test [4], 17800 nM.

For `Cc1cnc(Nc2cccc(S(C)(=O)=O)c2F)nc1-c1c[nH]c2c(NC(=O)[C@H](C)N3CCN(C)C[C@H]3C)cccc12` [Example 47, (S)-2-((R)-2,4-dimethylpiperazin-1-yl)-N-(3-(2-((2-fluoro-3-(methylsulfonyl)phenyl)amino)-5-methylpyrimidin-4-yl)-1H-indol-7-yl)propanamide], the concentration for half-maximal inhibition (IC50) in test [1] is > 30000 nM; in test [2] it was 619 nM; in test [3] it was 180 nM; in test [4], > 30000 nM.

On to `Cc1cnc(Nc2cccc(S(C)(=O)=O)c2F)nc1-c1c[nH]c2c(NC(=O)[C@@H](C)N3CCN(C)C[C@H]3C)cccc12` [Example 48, (R)-2-((R)-2,4-dimethylpiperazin-1-yl)-N-(3-(2-((2-fluoro-3-(methylsulfonyl)phenyl)amino)-5-methylpyrimidin-4-yl)-1H-indol-7-yl)propanamide], for which the concentration for half-maximal inhibition (IC50) is > 30000 nM in test [1], 82 nM in test [2], 3 nM in test [3] and 8230 nM in test [4].

Turning to `COC[C@@H](C(=O)Nc1cccc2c(-c3nc(Nc4cccc(S(C)(=O)=O)c4F)ncc3C)c[nH]c12)N1CCN(C)C[C@H]1C` [Example 54, (S)-2-((R)-2,4-dimethylpiperazin-1-yl)-N-(3-(2-((2-fluoro-(methylsulfonyl)phenyl)amino)-5-methylpyrimidin-4-yl)-1H-indol-7-yl)-3-methoxypropanamide], the IC50 was > 30000 nM in test [1], 258 nM in test [2], 14 nM in test [3] and 6720 nM in test [4].

On to `COC[C@H](C(=O)Nc1cccc2c(-c3nc(Nc4cccc(S(C)(=O)=O)c4F)ncc3C)c[nH]c12)N1CCN(C)C[C@H]1C` [Example 55, (R)-2-((R)-2,4-dimethylpiperazin-1-yl)-N-(3-(2-((2-fluoro-3-(methylsulfonyl)phenyl)amino)-5-methylpyrimidin-4-yl)-1H-indol-7-yl)-3-methoxypropanamide], for which the half-inhibitory concentration (IC50) is > 30000 nM in test [1], 26 nM in test [2], < 3 nM in test [3] and 293 nM in test [4].

`COC[C@@H](C(=O)Nc1cccc2c(-c3nc(Nc4cccc(S(C)(=O)=O)c4F)ncc3F)c[nH]c12)N1CCN(C)C[C@H]1C` [Example 56]: the half-inhibitory concentration (IC50) in test [1] was > 30000 nM; in test [2] it was 745 nM; in test [3], 123 nM; in test [4], > 30000 nM.

On to `COC[C@H](C(=O)Nc1cccc2c(-c3nc(Nc4cccc(S(C)(=O)=O)c4F)ncc3F)c[nH]c12)N1CCN(C)C[C@H]1C` [Example 57, (R)-2-((R)-2,4-dimethylpiperazin-1-yl)-N-(3-(5-fluoro-2-((2-fluoro-3-(methylsulfonyl)phenyl)amino)pyrimidin-4-yl)-1H-indol-7-yl)-3-methoxypropanamide], for which the IC50 is > 30000 nM in test [1], 21 nM in test [2], < 3 nM in test [3] and 709 nM in test [4].

With `Cc1cnc(Nc2cccc(S(C)(=O)=O)c2F)nc1-c1c[nH]c2c(NC(=O)[C@@H](C)N3CCN(C)C[C@@H]3C)cccc12` [Example 58, (R)-2-((S)-2,4-dimethylpiperazin-1-yl)-N-(3-(2-((2-fluoro-3-(methylsulfonyl)phenyl)amino)-5-methylpyrimidin-4-yl)-1H-indol-7-yl)propanamide], the half-inhibitory concentration (IC50) in test [1] is > 30000 nM; in test [2] it was 130 nM; in test [3], 48.6 nM; in test [4] it was 25300 nM.

For the molecule `Cc1cnc(Nc2cccc(S(C)(=O)=O)c2F)nc1-c1c[nH]c2c(NC(=O)[C@H](C)N3CCN(C)C[C@@H]3C)cccc12` [Example 59, (S)-2-((S)-2,4-dimethylpiperazin-1-yl)-N-(3-(2-((2-fluoro-3-(methylsulfonyl)phenyl)amino)-5-methylpyrimidin-4-yl)-1H-indol-7-yl)propanamide], the IC50 was > 30000 nM in test [1], > 6250 nM in test [2], 145 nM in test [3] and > 30000 nM in test [4].

`CCOC[C@H](C(=O)Nc1cccc2c(-c3nc(Nc4cccc(S(C)(=O)=O)c4F)ncc3C)c[nH]c12)N1CCN(C)CC1` [Example 62, (R)-3-ethoxy-N-(3-(2-((2-fluoro-3-(methylsulfonyl)phenyl)amino)-5-methylpyrimidin-4-yl)-1H-indol-7-yl)-2-(4-methylpiperazin-1-yl)propanamide]: the concentration for half-maximal inhibition (IC50) is > 30000 nM in test [1], 54 nM in test [2], < 3 nM in test [3] and 4140 nM in test [4].

As for `Cc1cnc(Nc2cccc(S(C)(=O)=O)c2F)nc1-c1c[nH]c2c(NC(=O)[C@@H](COCc3ccccc3)N3CCN(C)CC3)cccc12` [Example 64, (R)-3-(benzyloxy)-N-(3-(2-((2-fluoro-3-(methylsulfonyl)phenyl)amino)-5-methylpyrimidin-4-yl)-1H-indol-7-yl)-2-(4-methylpiperazin-1-yl)propanamide], the IC50 in test [1] is > 30000 nM; in test [2], 26 nM; in test [3], < 30 nM; in test [4], 910 nM.

Turning to `Cc1cnc(Nc2cccc(S(C)(=O)=O)c2F)nc1-c1c[nH]c2c(NC(=O)[C@H](COCc3ccccc3)N3CCN(C)CC3)cccc12` [Example 65, (S)-3-(benzyloxy)-N-(3-(2-((2-fluoro-3-(methylsulfonyl)phenyl)amino)-5-methylpyrimidin-4-yl)-1H-indol-7-yl)-2-(4-methylpiperazin-1-yl)propanamide], the IC50 in test [1] is > 30000 nM; in test [2], 508 nM; in test [3] it was 73 nM; in test [4], > 30000 nM.
